Our source for the Activity values is ChEMBL document CHEMBL1158095, “Trungapeptins A-C, cyclodepsipeptides from the marine cyanobacterium Lyngbya majuscula” (J Nat Prod, 2006).

Activity calls are given as the source filed them. The calls are words filed in the database; no cut-off is given here.

For test [1], the system named is KB. In words: Cytotoxicity against human KB cells at 10 ug/mL. In kind it is functional, cell-based.
Test [2] has as its system LoVo. In words: Cytotoxicity against human LoVo cells at 10 ug/mL. Format: functional, cell-based.

On to `C#CCCC[C@H]1OC(=O)[C@H]([C@@H](C)CC)NC(=O)[C@@H]2CCCN2C(=O)[C@H](Cc2ccccc2)OC(=O)[C@H](C(C)C)N(C)C(=O)[C@H](C(C)C)NC(=O)[C@H]1C`, for which the outcome in test [1] and in test [2] was inactive.
